Tests used:
Conditions in all cases: 72 h
[1] = system: Vero E6; assay: drug sensitivity score (DSS) for viability; higher = more toxic; extreme values may be limits of the assay
[2] = system: HepG2; assay: as above
[3] = system: Caco-2; assay: as above
[4] = system: U2OS; assay: as above
[5] = system: Calu-3; assay: as above
[6] = system: Vero E6; assay: relative viability EC50 (midpoint between 100% and the lowest measured viability); higher = less toxic
[7] = system: HepG2; assay: as above
[8] = system: Caco-2; assay: as above
[9] = system: U2OS; assay: as above
[10] = system: Calu-3; assay: as above
[11] = system: Vero E6; assay: cell viability relative to DMSO; higher = less toxic
[12] = system: HepG2; assay: as above
[13] = system: Caco-2; assay: as above
[14] = system: U2OS; assay: as above
[15] = system: Calu-3; assay: as above

SMILES | drug sensitivity score [1] | drug sensitivity score [2] | drug sensitivity score [3] | drug sensitivity score [4] | drug sensitivity score [5] | relative viability EC50 [6] | relative viability EC50 [7] | relative viability EC50 [8] | relative viability EC50 [9] | relative viability EC50 [10] | cell viability ([11]; 1 nM) | cell viability ([11]; 10 nM) | cell viability ([11]; 100 nM) | cell viability ([11]; 1000 nM) | cell viability ([11]; 10000 nM) | cell viability ([12]; 1 nM) | cell viability ([12]; 10 nM) | cell viability ([12]; 100 nM) | cell viability ([12]; 1000 nM) | cell viability ([12]; 10000 nM) | cell viability ([13]; 1 nM) | cell viability ([13]; 10 nM) | cell viability ([13]; 100 nM) | cell viability ([13]; 1000 nM) | cell viability ([13]; 10000 nM) | cell viability ([14]; 1 nM) | cell viability ([14]; 10 nM) | cell viability ([14]; 100 nM) | cell viability ([14]; 1000 nM) | cell viability ([14]; 10000 nM) | cell viability ([15]; 1 nM) | cell viability ([15]; 10 nM) | cell viability ([15]; 100 nM) | cell viability ([15]; 1000 nM) | cell viability ([15]; 10000 nM)
C[C@H](NCc1ccc(OCc2cccc(F)c2)cc1)C(N)=O [safinamide] | 0 | 0 | 0 | 0 | 0 | > 10 µM | > 10 µM | > 10 µM | > 10 µM | > 10 µM | 101% | 89.8% | 99.5% | 97.2% | 100% | 98.1% | 92.5% | 98.4% | 93.4% | 96.6% | 97.9% | 97.4% | 101% | 102% | 100% | 94.2% | 102% | 99% | 105% | 108% | 95% | 101% | 92.2% | 102% | 108%
O=C(O)Cn1c2c(c3cc(F)ccc31)CN(C(=O)c1cccc3ccccc13)CC2 [setipiprant] | 0 | 0 | 0 | 0 | 0.2 | > 10 µM | > 10 µM | > 10 µM | > 10 µM | > 10 µM | 94.2% | 102% | 97.3% | 99.9% | 102% | 98% | 96.3% | 108% | 101% | 102% | 91% | 103% | 103% | 95% | 99.1% | 101% | 105% | 102% | 104% | 98.4% | 91.9% | 115% | 93.1% | 98.7% | 86.5%
C[C@@H]1CC[C@@]2(NC1)O[C@H]1C[C@H]3[C@@H]4CC=C5C[C@@H](O[C@@H]6O[C@H](CO)[C@@H](O[C@@H]7O[C@@H](C)[C@H](O)[C@@H](O)[C@H]7O)[C@H](O)[C@H]6O[C@@H]6O[C@@H](C)[C@H](O)[C@@H](O)[C@H]6O)CC[C@]5(C)[C@H]4CC[C@]3(C)[C@H]1[C@@H]2C [solamargine] | 6.8 | 7.2 | 6.1 | 5.7 | 5.3 | 2.51 µM | 2.32 µM | 2.86 µM | 3.1 µM | 3.34 µM | 101% | 95.2% | 97.4% | 91.9% | 0% | 104% | 102% | 102% | 89.8% | 0.2% | 92% | 98% | 94.6% | 96% | 0.4% | 95.7% | 103% | 97.5% | 99.1% | 0.4% | 89% | 96.7% | 85.8% | 103% | 1%
O=C1C=CC[C@@H]2[C@H]3CCCN4CCC[C@@H](CN12)[C@@H]34 [sophocarpine] | 0 | 0 | 0 | 0 | 0 | > 10 µM | > 10 µM | > 10 µM | > 10 µM | > 10 µM | 97.8% | 113% | 106% | 109% | 100% | 92.1% | 99.1% | 80.5% | 91.2% | 89.4% | 93.8% | 95.9% | 110% | 97% | 90.3% | 97.3% | 96.4% | 100% | 98.5% | 106% | 98.8% | 103% | 103% | 98% | 102%
C[C@]12Cc3c[nH]nc3C[C@@H]1CC[C@@H]1[C@@H]2CC[C@@]2(C)[C@H]1CC[C@]2(C)O [stanozolol] | 0 | 0 | 0 | 0 | 0 | > 10 µM | > 10 µM | > 10 µM | > 10 µM | > 10 µM | 101% | 109% | 102% | 106% | 95% | 103% | 98.5% | 101% | 104% | 94.1% | 101% | 95% | 104% | 107% | 91.4% | 98.5% | 101% | 96.9% | 96.3% | 97.3% | 95% | 100% | 103% | 94.1% | 107%
O=[N+]([O-])c1ccc2c(c1)S(=O)(=O)C=C2 [stattic] | 6.1 | 5.4 | 6.1 | 6.4 | 3.2 | 2.79 µM | 3.29 µM | 2.3 µM | 2.69 µM | 3.99 µM | 95.8% | 99% | 99.1% | 95.3% | 2.5% | 96.3% | 95.7% | 107% | 102% | -0.2% | 97.6% | 90.3% | 99% | 91.2% | 16.1% | 99.1% | 95.6% | 98.6% | 94% | 0.6% | 107% | 95.2% | 97.7% | 117% | 27.3%
CC(C)(C)C(=O)OCOC(=O)[C@@H]1N2C(=O)C[C@H]2S(=O)(=O)C1(C)C [sulbactam-pivoxil] | 0 | 0 | 0 | 0 | 0 | > 10 µM | > 10 µM | > 10 µM | > 10 µM | > 10 µM | 99.3% | 104% | 100% | 99.1% | 99.2% | 98.2% | 100% | 96.2% | 105% | 103% | 99.3% | 90.6% | 93.5% | 98.6% | 101% | 95.7% | 96.6% | 94.9% | 98.6% | 95.3% | 98.5% | 97.4% | 109% | 108% | 101%
Cc1noc(NS(=O)(=O)c2ccc(N)cc2)c1C [sulfafurazole] | 0 | 0 | 0 | 0 | 0 | > 10 µM | > 10 µM | > 10 µM | > 10 µM | > 10 µM | 101% | 96.6% | 98.6% | 99.2% | 98.7% | 93% | 94.3% | 90.6% | 102% | 100% | 95.7% | 94.2% | 96.6% | 94% | 103% | 100% | 96.5% | 99.5% | 96% | 101% | 96.2% | 92.7% | 105% | 107% | 98.1%
COc1ccc(CC2NCCc3cc(OC)c(OC)cc32)cc1OC (stereo not given) [tetrahydropapaverine] | 0 | 0 | 0 | 0 | 0 | > 10 µM | > 10 µM | > 10 µM | > 10 µM | > 10 µM | 94.3% | 99.8% | 95.3% | 98.6% | 104% | 99.1% | 99.9% | 91.5% | 98.6% | 103% | 99.8% | 99% | 99.5% | 102% | 94.4% | 99.5% | 93.2% | 103% | 90.9% | 96.9% | 95.9% | 86.9% | 99.7% | 83.3% | 98.7%
CN1CCN(CCCN2c3ccccc3Sc3ccc(S(=O)(=O)N(C)C)cc32)CC1 [thioproperazine] | 0.6 | 0 | 0.4 | 0 | 0 | > 10 µM | > 10 µM | > 10 µM | > 10 µM | > 10 µM | 99.3% | 95.9% | 94.9% | 85.2% | 90.6% | 108% | 103% | 105% | 99.6% | 92.5% | 95.7% | 93.3% | 89.6% | 113% | 79% | 107% | 97.1% | 104% | 99.7% | 97.9% | 98% | 93.5% | 105% | 103% | 90.9%
[Cl][Ti][Cl].c1cc[cH-]c1.c1cc[cH-]c1 [titanocene-dichloride] | 0 | 0 | 0 | 0 | 0 | > 10 µM | > 10 µM | > 10 µM | > 10 µM | > 10 µM | 93.7% | 95.2% | 93.4% | 98.9% | 105% | 89.6% | 91.9% | 97.2% | 104% | 101% | 97.7% | 98.2% | 99.2% | 94.6% | 95.8% | 93.2% | 93.1% | 97.5% | 94.6% | 96.1% | 99.2% | 97.1% | 112% | 97.1% | 110%
Cc1ccc(O)c([C@H](CCN(C(C)C)C(C)C)c2ccccc2)c1 [tolterodine] | 0 | 0 | 0 | 0 | 0.8 | > 10 µM | > 10 µM | > 10 µM | > 10 µM | > 10 µM | 105% | 99.8% | 102% | 103% | 96.9% | 115% | 98.5% | 102% | 105% | 92.7% | 102% | 89.6% | 98.5% | 85.9% | 108% | 99.9% | 94.4% | 99.9% | 98.7% | 96.1% | 99.7% | 94.1% | 88.6% | 88.6% | 95.8%
CS(=O)(=O)OC[C@H](O)[C@@H](O)COS(C)(=O)=O [treosulfan] | 0 | 0 | 0 | 0 | 0 | > 10 µM | > 10 µM | > 10 µM | > 10 µM | > 10 µM | 92.3% | 100% | 92.5% | 98.2% | 106% | 93.1% | 93.6% | 94.6% | 108% | 108% | 95.6% | 96.4% | 102% | 90.9% | 99.3% | 104% | 94.7% | 103% | 94% | 99.2% | 105% | 104% | 102% | 98.8% | 111%
CCN(Cc1ccncc1)C(=O)C(CO)c1ccccc1 (stereo not given) [tropicamide] | 0 | 0 | 0 | 0 | 0 | > 10 µM | > 10 µM | > 10 µM | > 10 µM | > 10 µM | 94.2% | 88.8% | 91.8% | 84.8% | 102% | 106% | 98% | 107% | 91.9% | 97.8% | 86.2% | 96.9% | 97.2% | 89.4% | 101% | 91.7% | 98.8% | 95.4% | 99% | 103% | 98.6% | 90.5% | 101% | 95.9% | 103%

From the supplement of paper PMC13380429
